According to PubChem BioAssay AID1963422 (Molecular Pharmacology Branch, DTP, NCI, 2024):
pIC50: −log10 of the molar value.

System: 463943-066-T-J2-PDC complex spheroid growth
Test: Anticancer human tumor 463943-066-T-J2-PDC patient-derived colon adenocarcinoma cell line growth inhibition [Asc]
Conditions: for pIC50: curve of first compound; for viability, T/C: stronger effect = lower value
Summary of the method: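 Tumor cells were grown as complex spheroids with human endothelial cells (HUVEC) and human mesenchymal stem cells as stroma. Agents were tested alone and in combination, in half-log steps down from the clinical Cmax, or from 10 microM where Cmax was unknown.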

[1] = second compound 0.0316 µM, first compound 0.00316 µM
[2] = second compound 0.0316 µM, first compound 0.01 µM
[3] = second compound 0.0316 µM, first compound 0.0316 µM
[4] = second compound 0.0316 µM, first compound 0.1 µM
[5] = second compound 0.0316 µM, first compound 0.316 µM
[6] = second compound 0.0316 µM, first compound 1 µM
[7] = second compound 0.1 µM, first compound 0.00316 µM
[8] = second compound 0.1 µM, first compound 0.01 µM
[9] = second compound 0.1 µM, first compound 0.0316 µM
[10] = second compound 0.1 µM, first compound 0.1 µM
[11] = second compound 0.1 µM, first compound 0.316 µM
[12] = second compound 0.1 µM, first compound 1 µM
[13] = second compound 0.316 µM, first compound 0.00316 µM
[14] = second compound 0.316 µM, first compound 0.01 µM
[15] = second compound 0.316 µM, first compound 0.0316 µM
[16] = second compound 0.316 µM, first compound 0.1 µM
[17] = second compound 0.316 µM, first compound 0.316 µM
[18] = second compound 0.316 µM, first compound 1 µM
[19] = second compound 1 µM, first compound 0.00316 µM
[20] = second compound 1 µM, first compound 0.01 µM
[21] = second compound 1 µM, first compound 0.0316 µM
[22] = second compound 1 µM, first compound 0.1 µM
[23] = second compound 1 µM, first compound 0.316 µM
[24] = second compound 1 µM, first compound 1 µM
[25] = second compound 3.16 µM, first compound 0.00316 µM
[26] = second compound 3.16 µM, first compound 0.01 µM
[27] = second compound 3.16 µM, first compound 0.0316 µM
[28] = second compound 3.16 µM, first compound 0.1 µM
[29] = second compound 3.16 µM, first compound 0.316 µM
[30] = second compound 3.16 µM, first compound 1 µM
[31] = second compound 10 µM, first compound 0.00316 µM
[32] = second compound 10 µM, first compound 0.01 µM
[33] = second compound 10 µM, first compound 0.0316 µM
[34] = second compound 10 µM, first compound 0.1 µM
[35] = second compound 10 µM, first compound 0.316 µM
[36] = second compound 10 µM, first compound 1 µM
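Also: compound exposure lasted 7 days.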
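For viability, T/C in this document: 100% = DMSO vehicle control wells.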

`CCN1CCN(Cc2ccc(Nc3ncc(F)c(-c4cc(F)c5nc(C)n(C(C)C)c5c4)n3)nc2)CC1` + Cc1c(S(C)(=O)=O)c(-c2cc(F)cc(N3CCN(c4ccc(NS(=O)(=O)c5ccc(NC(CCN6CCC(C(=O)OCCCP(=O)(O)O)CC6)CSc6ccccc6)c(S(=O)(=O)C(F)(F)F)c5)cc4)CC3)c2)c(-c2ccc(Cl)cc2)n1C(C)C was tested, and the pIC50 (second compound 0.0316 µM) was < 6.00, the pIC50 (second compound 0.1 µM) was < 6.00 and the pIC50 (second compound 0.316 µM) was < 6.00. The pIC50 (second compound 1 µM) was < 6.00, the pIC50 (second compound 3.16 µM) was < 6.00 and the pIC50 (second compound 10 µM) was 6.41. The viability, T/C [1] was 98.2%, the viability, T/C [2] was 104% and the viability, T/C [3] was 87.9%. For the same compound, the viability, T/C [4] was 96.6%, the viability, T/C [5] was 109% and the viability, T/C [6] was 106%. The viability, T/C [7] was 94%, the viability, T/C [8] was 95.5% and the viability, T/C [9] was 92.1%. The viability, T/C [10] was 90.5%, the viability, T/C [11] was 103% and the viability, T/C [12] was 96.8%. It also gave a viability, T/C [13] of 90.9%, a viability, T/C [14] of 91.2% and a viability, T/C [15] of 84.4%. For the same compound, the viability, T/C [16] was 88.5%, the viability, T/C [17] was 90.3% and the viability, T/C [18] was 90%. The viability, T/C [19] was 79.7%, the viability, T/C [20] was 81.3% and the viability, T/C [21] was 76%. It also gave a viability, T/C [22] of 79%, a viability, T/C [23] of 80.6% and a viability, T/C [24] of 72.3%. For the same compound, the viability, T/C [25] was 61.8%, the viability, T/C [26] was 61.5% and the viability, T/C [27] was 62.4%. For the same compound, the viability, T/C [28] was 62.9%, the viability, T/C [29] was 60% and the viability, T/C [30] was 56%. For the same compound, the viability, T/C [31] was 49.1%, the viability, T/C [32] was 52.6% and the viability, T/C [33] was 51.4%. For the same compound, the viability, T/C [34] was 52.9%, the viability, T/C [35] was 51.2% and the viability, T/C [36] was 44.8%.

For `Cn1ncnc1[C@H]1c2n[nH]c(=O)c3cc(F)cc(c23)N[C@@H]1c1ccc(F)cc1` + Cc1c(S(C)(=O)=O)c(-c2cc(F)cc(N3CCN(c4ccc(NS(=O)(=O)c5ccc(NC(CCN6CCC(C(=O)OCCCP(=O)(O)O)CC6)CSc6ccccc6)c(S(=O)(=O)C(F)(F)F)c5)cc4)CC3)c2)c(-c2ccc(Cl)cc2)n1C(C)C, the pIC50 (second compound 0.0316 µM) was < 7.00, the pIC50 (second compound 0.1 µM) was < 7.00 and the pIC50 (second compound 0.316 µM) was < 7.00. For the same compound, the pIC50 (second compound 1 µM) was < 7.00, the pIC50 (second compound 3.16 µM) was < 7.00 and the pIC50 (second compound 10 µM) was > 9.50. It also gave a viability, T/C (second compound 0.0316 µM, first compound 0.000316 µM) of 100%, a viability, T/C (second compound 0.0316 µM, first compound 0.001 µM) of 91.8% and a viability, T/C [1] of 93.6%. It also gave a viability, T/C [2] of 102%, a viability, T/C [3] of 92.2% and a viability, T/C [4] of 83%. The viability, T/C (second compound 0.1 µM, first compound 0.000316 µM) was 93%, the viability, T/C (second compound 0.1 µM, first compound 0.001 µM) was 94% and the viability, T/C [7] was 87.2%. It also gave a viability, T/C [8] of 91.6%, a viability, T/C [9] of 92.3% and a viability, T/C [10] of 80.1%. For the same compound, the viability, T/C (second compound 0.316 µM, first compound 0.000316 µM) was 91.1%, the viability, T/C (second compound 0.316 µM, first compound 0.001 µM) was 82% and the viability, T/C [13] was 84.5%. It also gave a viability, T/C [14] of 80.2%, a viability, T/C [15] of 86.7% and a viability, T/C [16] of 83.1%. It also gave a viability, T/C (second compound 1 µM, first compound 0.000316 µM) of 84.9%, a viability, T/C (second compound 1 µM, first compound 0.001 µM) of 74.4% and a viability, T/C [19] of 76.6%. For the same compound, the viability, T/C [20] was 79.8%, the viability, T/C [21] was 85.2% and the viability, T/C [22] was 71.2%. For the same compound, the viability, T/C (second compound 3.16 µM, first compound 0.000316 µM) was 61.7%, the viability, T/C (second compound 3.16 µM, first compound 0.001 µM) was 58.1% and the viability, T/C [25] was 61%. For the same compound, the viability, T/C [26] was 61%, the viability, T/C [27] was 68.3% and the viability, T/C [28] was 60.8%. It also gave a viability, T/C (second compound 10 µM, first compound 0.000316 µM) of 44.8%, a viability, T/C (second compound 10 µM, first compound 0.001 µM) of 50.5% and a viability, T/C [31] of 47.6%. It also gave a viability, T/C [32] of 46.8%, a viability, T/C [33] of 56.2% and a viability, T/C [34] of 45.6%.

Work on `O=C(c1ccc(F)c(F)c1Nc1ccc(I)cc1F)N1CC(O)([C@@H]2CCCCN2)C1` + Cc1c(S(C)(=O)=O)c(-c2cc(F)cc(N3CCN(c4ccc(NS(=O)(=O)c5ccc(NC(CCN6CCC(C(=O)OCCCP(=O)(O)O)CC6)CSc6ccccc6)c(S(=O)(=O)C(F)(F)F)c5)cc4)CC3)c2)c(-c2ccc(Cl)cc2)n1C(C)C yielded a pIC50 (second compound 0.0316 µM) of 7.02, a pIC50 (second compound 0.1 µM) of 6.95 and a pIC50 (second compound 0.316 µM) of 7.25. For the same compound, the pIC50 (second compound 1 µM) was 7.57, the pIC50 (second compound 3.16 µM) was 8.02 and the pIC50 (second compound 10 µM) was > 8.50. For the same compound, the viability, T/C [1] was 92%, the viability, T/C [2] was 80.6% and the viability, T/C [3] was 61.6%. It also gave a viability, T/C [4] of 52.2%, a viability, T/C [5] of 35.1% and a viability, T/C [6] of 28.1%. It also gave a viability, T/C [7] of 88.2%, a viability, T/C [8] of 76.3% and a viability, T/C [9] of 64.6%. For the same compound, the viability, T/C [10] was 50.5%, the viability, T/C [11] was 38.7% and the viability, T/C [12] was 24.4%. For the same compound, the viability, T/C [13] was 85.7%, the viability, T/C [14] was 77.8% and the viability, T/C [15] was 51.2%. For the same compound, the viability, T/C [16] was 45.2%, the viability, T/C [17] was 34.3% and the viability, T/C [18] was 24.8%. For the same compound, the viability, T/C [19] was 73.4%, the viability, T/C [20] was 61.6% and the viability, T/C [21] was 47.1%. For the same compound, the viability, T/C [22] was 36.7%, the viability, T/C [23] was 29.5% and the viability, T/C [24] was 20%. For the same compound, the viability, T/C [25] was 55.3%, the viability, T/C [26] was 51.8% and the viability, T/C [27] was 38.6%. The viability, T/C [28] was 33.8%, the viability, T/C [29] was 22.6% and the viability, T/C [30] was 16.6%. For the same compound, the viability, T/C [31] was 43.1%, the viability, T/C [32] was 41.1% and the viability, T/C [33] was 34%. It also gave a viability, T/C [34] of 25.9%, a viability, T/C [35] of 16.7% and a viability, T/C [36] of 12.3%.
